Our source for the logP values is ChEMBL document CHEMBL1136579, “Determination of active components in rhubarb and study of their hydrophobicity by micellar electrokinetic chromatography” (Bioorg Med Chem Lett, 2003).

A short description of the data set: Partition coefficient of compound in octanol and water by Fragmental method of Leo/Hansch. It counts as physicochemical.
In the case of `COc1cc(O)c2c(c1)C(=O)c1cc(C)cc(O)c1C2=O` [PHYSCION], the log partition coefficient (logP) amounted to 3.65.
The molecule `Cc1cc(O)c2c(c1)C(=O)c1cccc(O)c1C2=O` [CHRYSOPHANOL] returned a logP of 3.39.
Regarding `Cc1cc(O)c2c(c1)C(=O)c1cc(O)cc(O)c1C2=O` [EMODIN], the lipophilicity (logP) was 2.87.
Regarding `O=C1c2cccc(O)c2C(=O)c2c(O)cc(CO)cc21` [ALOE-EMODIN], the log partition coefficient (logP) was found to be 2.62.
`O=C(O)c1cc(O)c2c(c1)C(=O)c1cccc(O)c1C2=O` [RHEIN] yielded a lipophilicity (logP) of 2.37.

The logP is a log measure of how a compound divides between an organic and an aqueous phase. A high value points to a more lipophilic compound.
